“And” between values parts separate entries of the source, which are not always exact repeats. Equal entries are not always repeated. “Also recorded” adds a separate entry of the source.

In assay [1] the test system is mouse bone marrow derived osteoprogenitor cells. In words: In vitro osteoblast differentiation assay (cellular alkaline phosphatase). To be noted: for Osteoblast differentiation: significance of activation/inhibition vs baseline. Type of assay: cell-based. The text has this: We have established a culture model in which mouse bone marrow derived osteoprogenitor cells first proliferate and then differentiate to osteoblasts capable of forming mineralized bone nodules (Qu et al. 1998, Qu et al. 1999). We confirmed this by following the expression of several markers of the osteoblastic phenotype and by studying the morphology of cultures at light and electron microscopic level. […] Thus, this culture system fulfills requirements of an in vitro model useful for studying differentiation of osteoprogenitor cells into bone synthesizing osteoblasts. […] Animals were killed by cervical dislocation. Both femora were removed and the soft tissues were detached aseptically. Metaphyses from both ends were cut off and bone marrow cells were collected by flushing the diaphysis with culture medium: phenol red-free-α-modified essential medium (α-MEM (Gibco BRL, Paisley, UK)). […] The cells were cultured for 6 days and half of the media […] days. […] Cells were washed with warm PBS and adherent cells were detached using trypsin-EDTA. […] The test substances were added at the beginning of the secondary culture without estrogen, and every time when the medium was changed. The number of osteoblasts formed was determined by measuring cellular alkaline phosphatase (ALP) activity in the culture. […] Louis, Mo., USA), and overnight freezing. ALP activity was determined colorimetrically using p-nitrophenylphosphate as substrate at pH 9.7 and determining the optical density at 405 nm. In parallel, protein contents of the wells were determined by the BIO-RAD protein assay, and the specific ALP activity is expressed as units/mg protein. […] Osteoblast differentiation was determined by measuring cellular alkaline phosphatase (ALP) activities and total protein amounts from cell lysates. The ALP activities were divided with the corresponding protein amounts to obtain specific activities of ALP. The results are shown as relative specific activities obtained by dividing each individual value with the mean value of the baseline group.

In another assay the test system is mature osteoblasts. In words: In vitro bone formation assay (calcium deposition into bone nodules). Format: cell-based, mouse. To be noted: for Bone formation: significance of activation/inhibition vs baseline; for Effect on bone formation activity of mature osteoblasts, in words: lanthanum (III) / lanthanum (III) ion = all concentrations tested, 100 to 15,000 ng/ml, 17-estradiol 10^−10M. As for the experimental part:
The activity of mature osteoblasts can be determined by quantifying their ability to form mineralized bone matrix. This is done by demineralizing the formed bone matrix, and determining the amount of calcium released. Thus, this culture system fulfills requirements of an in vitro model useful for studying the bone formation activity of mature osteoblasts. […] At the end of the culture, the amount of calcium deposited during the culture period was determined, and the amount of bone formation (calcium deposition) calculated. […] Extracts of 50 μl were complexed with 1 ml determined o-cresol-phthalein-complexon. The colorimetric reaction was determined at 570 nm in a spectrophotometer. Absolute calcium concentrations were determined by comparison with a calibrated standard provided by the vendor. In this study, the effect of lanthanum carbonate on bone formation was tested. […] The amount of bone formation was determined by measuring the amount of calcium deposited into bone nodules formed by mature osteoblasts. The results are shown as the amount of calcium released (mmol/L) from the bone nodules after HCl extraction. The baseline values are too low to show the results using relative amounts as was done in the other assays.

For assay [2], the system named is iliac crest of growing immature dogs. As to the method:
The specimens taken from the iliac crest of growing immature dogs were analysed. The group was divided into a control and treatment group. The treatment group received 1000 mg/Kg/day of lanthanum carbonate administered orally twice daily. The groups were run for 13 weeks, after which time samples of bone were taken vertically through the iliac crest, embedded in methyl methacrylate based resin, sectioned and stained with toluidine blue and Von Kossa stain.

A further assay relates to osteoclasts. To be noted: extracellular application; cited from earlier work.
For assay [3], the system named is limb bud mesodermal cells. Particulars: organoid cultures; cited from earlier work.
Where [4] appears, read: LA number = ng/ml lanthanum, lanthanum (III) ion = 100-15000 ng/ml, 17-estradiol 10^−10 M.
Setting [5] is: first osteoblast differentiation assay, relative to mean of baseline group, 8 days, LA number = ng/ml lanthanum, Control = Baseline+10^−10 M 17-estradiol.
Setting [6] is: preliminary osteoblast differentiation assay, relative to mean of baseline group, 8 days, LA number = ng/ml lanthanum, Control = Baseline+10^−10 M 17-estradiol.
Setting [7] is: second osteoblast differentiation assay, relative to mean of baseline group, 8 days, LA number = ng/ml lanthanum, Control = Baseline+10^−10 M 17-estradiol.
Where [8] appears, read: first bone formation assay, calcium released from bone nodules after HCl extraction, LA number = ng/ml lanthanum, Control = Baseline+10^−10M 17β-estradiol.
[9] abbreviates: preliminary bone formation assay, calcium released from bone nodules after HCl extraction, LA number = ng/ml lanthanum, Control = Baseline+10^−10M 17β-estradiol.
Setting [10] is: second bone formation assay, calcium released from bone nodules after HCl extraction, LA number = ng/ml lanthanum, Control = Baseline+10^−10M 17β-estradiol.

`O.O.O.O.O=C([O-])[O-].O=C([O-])[O-].O=C([O-])[O-].[La+3].[La+3]` [LA, lanthanum carbonate tetrahydrate]: the “Effect on osteoblast differentiation, in words” value in assay [1] (100 ng/ml lanthanum) is “stimulate osteoblast differentiation”; in assay [1] (setting [4]), “clear dose-dependent response”. Moreover, the Osteoblast differentiation entry in assay [1] (Dose 100 ng/ml) is “+ (One character (+ or −) means a p-value between 0.05 and 0.01)”; in assay [1] (Dose 500 ng/ml), 0; in assay [1] (Dose 1000 ng/ml), 0; in assay [1] (Dose 5000 ng/ml) it was “− − −”; in assay [1] (Dose 15000 ng/ml), “− − −”. The Bone formation result in the assay on mature osteoblasts (Dose 100 ng/ml) is “++ (two characters (++ or −−) a p-value between 0.01 and 0.001)”; in the assay on mature osteoblasts (Dose 500 ng/ml), “+++ (three characters (+++ or −−−) a p-value <0.001)”; with mature osteoblasts (Dose 1000 ng/ml) it was “+++ (three characters (+++ or −−−) a p-value <0.001)”; with mature osteoblasts (Dose 5000 ng/ml), “+++ (three characters (+++ or −−−) a p-value <0.001)”; in the assay on mature osteoblasts (Dose 15000 ng/ml), “+++ (three characters (+++ or −−−) a p-value <0.001)”. In addition, the “Effect on bone formation activity of mature osteoblasts, in words” value with mature osteoblasts (LA number = ng/ml lanthanum, listed as lanthanum (III)) is “Enhanced bone formation”; in the assay with mature osteoblasts (LA number = ng/ml lanthanum, listed as lanthanum (III) ion) it was “highly significant activation; also recorded: powerful stimulator of the bone formation activity of mature osteoblasts”. The “Bone formation in growing dogs” value in assay [2] (dose of 2,000 mg/kg/day lanthanum) was “enhanced bone formation”. The “Bone volume and density compared to control animals” value in assay [2] (growing dogs, dose of 2,000 mg/kg/day lanthanum) is reported as “significant increase”. Moreover, the “Other bone parameters investigated, treated vs control group” value in assay [2] (growing immature dogs, 1000 mg/Kg/day of lanthanum carbonate orally twice daily, 13 weeks, iliac crest) was “no statistically significant difference”. Also, the “Cytosolic calcium in osteoclasts” value in the assay with osteoclasts was “concentration-dependant elevation of cytosolic calcium”. The Calcium accumulation entry in assay [3] was “reduced calcium accumulation”. Further, the Endochondral mineralization entry in assay [3] was “inhibited endochondral mineralization”.
With `O.O.O.O.O=C([O-])[O-].O=C([O-])[O-].O=C([O-])[O-].[La+3].[La+3]` [LA 15000, lanthanum carbonate tetrahydrate], in assay [1] (setting [4]), the “Effect on osteoblast differentiation, in words” value is listed as “inhibited”. In assay [1] (setting [5]), the “Relative specific activities of intracellular alkaline phosphatase, Mean ± SD” value is on record as 0.40 ± 0.07(***); the “Relative specific activities of intracellular alkaline phosphatase, replicates 1-8” value is 0.39 and 0.35 and 0.43. Moreover, in assay [1] (setting [6]), the “Relative specific activities of intracellular alkaline phosphatase, Mean ± SD” value was 0.50 ± 0.03(***); the “Relative specific activities of intracellular alkaline phosphatase, replicates 1-4” value is 0.51 and 0.49 and 0.47 and 0.54. Further, in assay [1] (setting [7]), the “Relative specific activities or intracellular alkaline phosphatase, Mean ± SD” value is on record as 0.28 ± 0.07(***); the “Relative specific activities or intracellular alkaline phosphatase, replicates 1-6” value is 0.27 and 0.13 and 0.33 and 0.32 and 0.29 and 0.31. Further, the “Combined results on osteoblast differentiation (relative specific ALP activity), Mean ± SD” value in assay [1] (tables 8-10 combined, number 18, LA number = ng/ml lanthanum, Control = Baseline+10^−10 M 17-estradiol) is on record as 0.38 ± 0.11 (***). Further, the “Effect on bone formation activity of mature osteoblasts, in words” value in the assay on mature osteoblasts (LA number = ng/ml lanthanum) was “best responses”. In addition, in the assay on mature osteoblasts (setting [8]), the “Calcium deposition, Mean ± SD” value came out at 1.29 ± 0.21 mmol/L; the “Calcium deposition, replicates 1-6” value was 1.46 mmol/L and 1.42 mmol/L and 1.56 mmol/L and 1.11 mmol/L (2×) and 1.08 mmol/L. Also, in the assay on mature osteoblasts (setting [9]), the “Calcium deposition, Mean ± SD” value stood at 0.89 ± 0.66 mmol/L; the “Calcium deposition, replicates 1-4” value was 1.48 mmol/L and 0.16 mmol/L and 0.50 mmol/L and 1.41 mmol/L. Further, in the assay on mature osteoblasts (setting [10]), the “Calcium deposition, Mean ± SD” value was 1.40 ± 0.21(* mmol/L; the “Calcium deposition, replicates 1-8” value was 1.62 mmol/L and 1.18 mmol/L and 1.21 mmol/L. Also, the “Combined results on bone formation activity of mature osteoblasts (calcium released), Mean ± SD” value in the assay on mature osteoblasts (tables 13 and 14 combined, number 14, LA number = ng/ml lanthanum, Control = Baseline+10^−10M 17β-estradiol) was 1.35 ± 0.21 mmol/L.

The record behind these values is patent US7078059B2, “Treatment of bone diseases” (Shire Holdings AG, priority 2000, dated 2006).
